Laboratory results taken from ChEMBL document CHEMBL1201862, “PubChem BioAssay data set” (2004).
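All cell lines were grown in 96-well plates and treated with compound for 48 hours. GI50 is the concentration that inhibits growth by half.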 Calls of active or inactive are those of the source. No stated cut-off is given here; in the data, active = GI50 up to about 1.1 µM and inactive = higher.

Legend:
Assay in all cases: NCI-60 cell line screen, 48 h
UACC-62 = tested on: UACC-62
EKVX = tested on: EKVX
HOP-62 = tested on: HOP-62
HOP-92 = tested on: HOP-92
SF-268 = tested on: SF-268
786-0 = tested on: 786-0
ACHN = tested on: ACHN
NCI/ADR-RES = tested on: NCI/ADR-RES
SK-MEL-5 = tested on: SK-MEL-5
Malme-3M = tested on: Malme-3M
OVCAR-5 = tested on: OVCAR-5
U-251 = tested on: U-251
NCI-H460 = tested on: NCI-H460
MDA-MB-435 = tested on: MDA-MB-435
OVCAR-4 = tested on: OVCAR-4
PC-3 = tested on: PC-3
KM12 = tested on: KM12
RXF 393 = tested on: RXF 393
NCI-H226 = tested on: NCI-H226
M14 = tested on: M14

SMILES	GI50 (UACC-62)	GI50 (EKVX)	GI50 (HOP-62)	GI50 (HOP-92)	GI50 (SF-268)	GI50 (786-0)	GI50 (ACHN)	GI50 (NCI/ADR-RES)	GI50 (SK-MEL-5)	GI50 (Malme-3M)	GI50 (OVCAR-5)	GI50 (U-251)	GI50 (NCI-H460)	GI50 (MDA-MB-435)	GI50 (OVCAR-4)	GI50 (PC-3)	GI50 (KM12)	GI50 (RXF 393)	GI50 (NCI-H226)	GI50 (M14)
O=C(n1c(=O)n(-c2ccc(Cl)cc2)c(=O)n1C(=O)C(Cl)(Cl)Cl)C(Cl)(Cl)Cl	> 100 µM (inactive)	> 100 µM (inactive)	> 100 µM (inactive)	> 100 µM (inactive)	50 µM (inactive)	> 100 µM (inactive)	12.7 µM (inactive)	43.5 µM (inactive)	> 100 µM (inactive)	> 100 µM (inactive)	> 10 µM (inactive)	> 100 µM (inactive)	> 100 µM (inactive)	31.6 µM (inactive)	> 100 µM (inactive)	> 100 µM (inactive)	82.8 µM (inactive)	–	–	–
CN(C)CCNC1=Nc2ccccc2C(=O)N2CSCC12 (stereo not given)	> 100 µM (inactive)	> 100 µM (inactive)	> 100 µM (inactive)	–	> 100 µM (inactive)	> 100 µM (inactive)	> 100 µM (inactive)	> 100 µM (inactive)	> 100 µM (inactive)	> 100 µM (inactive)	> 100 µM (inactive)	> 100 µM (inactive)	> 100 µM (inactive)	> 100 µM (inactive)	> 100 µM (inactive)	> 100 µM (inactive)	> 100 µM (inactive)	> 100 µM (inactive)	> 100 µM (inactive)	> 100 µM (inactive)
O=C1N/N=C\Nc2ccc(cc2)S(=O)(=O)c2ccc(cc2)/N=C\NNC1=O	> 100 µM (inactive)	> 100 µM (inactive)	> 100 µM (inactive)	> 100 µM (inactive)	> 100 µM (inactive)	> 100 µM (inactive)	> 100 µM (inactive)	> 100 µM (inactive)	> 100 µM (inactive)	–	> 100 µM (inactive)	> 100 µM (inactive)	> 100 µM (inactive)	> 100 µM (inactive)	> 100 µM (inactive)	> 100 µM (inactive)	> 100 µM (inactive)	> 100 µM (inactive)	> 100 µM (inactive)	> 100 µM (inactive)
COc1cccc(-c2cccc(SC)n2)n1	36.2 µM (inactive)	17.7 µM (inactive)	27.9 µM (inactive)	19.5 µM (inactive)	–	28.8 µM (inactive)	36.8 µM (inactive)	28.4 µM (inactive)	20.5 µM (inactive)	–	29.2 µM (inactive)	36.7 µM (inactive)	29 µM (inactive)	26.4 µM (inactive)	36.2 µM (inactive)	38.6 µM (inactive)	34 µM (inactive)	18.7 µM (inactive)	15.8 µM (inactive)	24 µM (inactive)
C=C1[C@H](OCC(C)C)[C@@H](OCC(C)C)[C@@H](O)C(C)(C)/C=C/[C@H](C)C(=O)[C@@]2(O)C[C@H](C)[C@H](O)[C@@H]2[C@H]1OCC(C)C	7.19 µM (inactive)	–	1.16 µM (inactive)	> 7.5 µM (inactive)	6.24 µM (inactive)	4.49 µM (inactive)	> 7.5 µM (inactive)	> 7.5 µM (inactive)	7.18 µM (inactive)	–	> 7.5 µM (inactive)	> 7.5 µM (inactive)	0.555 µM (active)	3.01 µM (inactive)	> 7.5 µM (inactive)	> 7.5 µM (inactive)	> 7.5 µM (inactive)	> 7.5 µM (inactive)	–	2.14 µM (inactive)
NC(=O)C(NC=O)c1ccccc1 (stereo not given)	> 100 µM (inactive)	> 100 µM (inactive)	> 100 µM (inactive)	> 100 µM (inactive)	> 100 µM (inactive)	> 100 µM (inactive)	> 100 µM (inactive)	> 100 µM (inactive)	> 100 µM (inactive)	–	–	> 100 µM (inactive)	> 100 µM (inactive)	> 100 µM (inactive)	> 100 µM (inactive)	> 100 µM (inactive)	> 100 µM (inactive)	> 100 µM (inactive)	–	> 100 µM (inactive)
CSC12c3cc(C)n(-c4ccccc4)c3CC(C)(C)CN1C(=O)C2Oc1ccccc1 (stereo not given)	29.3 µM (inactive)	26.5 µM (inactive)	> 100 µM (inactive)	7.66 µM (inactive)	–	83.8 µM (inactive)	36 µM (inactive)	62.4 µM (inactive)	22.4 µM (inactive)	–	> 100 µM (inactive)	93.5 µM (inactive)	29.1 µM (inactive)	> 100 µM (inactive)	> 100 µM (inactive)	35.2 µM (inactive)	> 100 µM (inactive)	> 100 µM (inactive)	24.9 µM (inactive)	12.4 µM (inactive)
N=C1N(S(=O)(=O)c2ccccc2)[C@@H](Cc2ccccc2)[C@H](c2ccccc2)C1(c1ccccc1)c1ccccc1	> 100 µM (inactive)	37.2 µM (inactive)	> 100 µM (inactive)	–	> 100 µM (inactive)	> 100 µM (inactive)	> 100 µM (inactive)	70.1 µM (inactive)	23.6 µM (inactive)	> 100 µM (inactive)	> 100 µM (inactive)	64.1 µM (inactive)	36.7 µM (inactive)	> 100 µM (inactive)	> 100 µM (inactive)	9.62 µM (inactive)	31.4 µM (inactive)	63.2 µM (inactive)	–	> 100 µM (inactive)
NC(CC(O)(c1ccccc1)c1ccccc1)c1ccccc1S (stereo not given)	15.5 µM (inactive)	7.94 µM (inactive)	15.7 µM (inactive)	–	9.71 µM (inactive)	15.9 µM (inactive)	13.1 µM (inactive)	16.6 µM (inactive)	13 µM (inactive)	25.7 µM (inactive)	15.9 µM (inactive)	15.1 µM (inactive)	18 µM (inactive)	14.8 µM (inactive)	15.9 µM (inactive)	11.4 µM (inactive)	12.5 µM (inactive)	17 µM (inactive)	15 µM (inactive)	15.4 µM (inactive)
CCOC(=O)CCC(NC(=O)c1ccc(N2CCN(c3c(C)nc(N)nc3N)CC2)cc1)C(=O)OCC (stereo not given)	0.165 µM (active)	> 78.2 µM (inactive)	–	48.6 µM (inactive)	0.757 µM (active)	0.0929 µM (active)	0.122 µM (active)	7.43 µM (inactive)	0.0923 µM (active)	> 100 µM (inactive)	> 100 µM (inactive)	0.0845 µM (active)	6.53 µM (inactive)	0.251 µM (active)	> 100 µM (inactive)	0.0398 µM (active)	1.43 µM (inactive)	–	0.902 µM (active)	1.32 µM (inactive)
COC(=O)[C@@](C)(COC(=O)C(C)(C)C)NC(=O)OC(C)(C)C	> 100 µM (inactive)	> 100 µM (inactive)	> 100 µM (inactive)	–	> 100 µM (inactive)	> 100 µM (inactive)	> 100 µM (inactive)	> 100 µM (inactive)	> 100 µM (inactive)	> 100 µM (inactive)	> 100 µM (inactive)	> 100 µM (inactive)	> 100 µM (inactive)	> 100 µM (inactive)	> 100 µM (inactive)	> 100 µM (inactive)	> 100 µM (inactive)	> 100 µM (inactive)	> 100 µM (inactive)	> 100 µM (inactive)
NC1CC(=O)c2c1sc(Cl)c2Cl (stereo not given)	> 100 µM (inactive)	> 100 µM (inactive)	> 100 µM (inactive)	–	> 100 µM (inactive)	> 100 µM (inactive)	> 100 µM (inactive)	> 100 µM (inactive)	> 100 µM (inactive)	> 100 µM (inactive)	> 100 µM (inactive)	> 100 µM (inactive)	> 100 µM (inactive)	> 100 µM (inactive)	–	> 100 µM (inactive)	> 100 µM (inactive)	> 100 µM (inactive)	–	> 100 µM (inactive)
O=C(Sc1n[nH]c(=O)[nH]c1=O)c1cccc2nc3ccccc3nc12	38.8 µM (inactive)	> 100 µM (inactive)	–	> 100 µM (inactive)	> 100 µM (inactive)	> 100 µM (inactive)	30.2 µM (inactive)	> 100 µM (inactive)	3.41 µM (inactive)	5.64 µM (inactive)	> 100 µM (inactive)	> 100 µM (inactive)	8.63 µM (inactive)	13.7 µM (inactive)	76.9 µM (inactive)	–	39 µM (inactive)	> 100 µM (inactive)	34.4 µM (inactive)	23.6 µM (inactive)
C=CCOC1OC(CO[Si](C)(C)C(C)(C)C)C(OCc2ccccc2)C(OCc2ccccc2)C1OCc1ccccc1 (stereo not given)	27.2 µM (inactive)	> 100 µM (inactive)	21.7 µM (inactive)	38.5 µM (inactive)	40.5 µM (inactive)	10.5 µM (inactive)	40.4 µM (inactive)	36.6 µM (inactive)	29.5 µM (inactive)	27.5 µM (inactive)	> 100 µM (inactive)	29.2 µM (inactive)	42 µM (inactive)	> 100 µM (inactive)	39 µM (inactive)	58.9 µM (inactive)	> 100 µM (inactive)	–	> 100 µM (inactive)	68.1 µM (inactive)
CC(Br)C(=O)NN1C2=C(Nc3ccccc31)c1cccc3cccc2c13 (stereo not given)	–	> 100 µM (inactive)	22 µM (inactive)	–	> 100 µM (inactive)	45.9 µM (inactive)	31.2 µM (inactive)	65.2 µM (inactive)	62.1 µM (inactive)	> 100 µM (inactive)	> 100 µM (inactive)	41.5 µM (inactive)	49.4 µM (inactive)	> 100 µM (inactive)	–	> 100 µM (inactive)	> 100 µM (inactive)	> 100 µM (inactive)	> 100 µM (inactive)	> 100 µM (inactive)
